This is an account of results in patent US20120004228A1, “Bis Aromatic Compounds for Use as LTC4 Synthase Inhibitors” (BIOLIPOX AB, priority 2009, published 2012).

pIC50: −log10 of the molar value.

Broadly, the pIC50 is −log10 of the IC50, conventionally taken in molar units. As usually defined, the inhibition is the percentage by which the read-out fell short of the control.

For the first assay, the target named is T1, Recombinant human LTC4 synthase (Homo sapiens, UniProt Q16873).
T1 construct: made in house; host or cells: Pichia pastoris ('Piccia pastoralis' [sic])
T1 sequence (Q16873 1-150): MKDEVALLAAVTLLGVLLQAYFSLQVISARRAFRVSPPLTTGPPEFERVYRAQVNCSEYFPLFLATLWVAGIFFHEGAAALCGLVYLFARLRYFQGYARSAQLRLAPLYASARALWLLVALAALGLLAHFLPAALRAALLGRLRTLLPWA
The experiment in a line: In vitro LTC4 synthase assay (LTA4 to LTC4, HTRF detection).
Conditions: not given
The assay is classed as biochemical. As for the experimental part: In the assay, LTC4 synthase catalyses the reaction where the substrate LTA4 is converted to LTC4. Recombinant human LTC4 synthase is expressed in Piccia pastoralis and the purified enzyme is dissolved in 25 mM tris-buffer pH 7.8 supplemented with 0.1 mM glutathione (GSH) and stored at −80° C. The assay is performed in phosphate buffered saline (PBS) pH 7.4 and 5 mM GSH in 384-well plates.
The following is added chronologically to each well:
1. 48 μL LTC4 synthase in PBS with 5 mM GSH. The total protein concentration in this solution is 0.5 μg/mL. 2. 1 μL inhibitor in DMSO (final concentration 10 μM). 3. Incubation of the plate at room temperature for 10 min. 4. 1 μL LTA4 (final concentration 2.5 μM). 5. Incubation of the plate at room temperature for 5 min. 6. 10 μL of the incubation mixture is analysed using homogenous time resolved fluorescent (HTRF) detection.
Take `CN(c1ccc(Cl)cc1)c1ccc(C(=O)c2cc(C(=O)O)cc(N(C)c3ccccc3)c2)nc1` [9:6, 3-{5-[(4-Chlorophenyl)(methyl)amino]picolinoyl}-5-[methyl(phenyl)amino]-benzoic acid]: the pIC50 is 7.48.
As to `O=C(O)c1cc(Nc2ccc(Cl)cc2)ccc1C(=O)c1ccc(Nc2ccc(C(=O)C3CC3)cc2)cc1` [6:2, 5-(4-Chlorophenylamino)-2-[4-(4-cyclopropylcarbonylphenylamino)-benzoyl]benzoic acid], the pIC50 is 6.41.
As to `CN(c1ccc(Cl)cc1)c1ccc(C(=O)c2cc(NCc3ccccc3)cc(C(=O)O)c2)cc1` [10:10, 3-Benzylamino-5-{4-[(4-chlorophenyl)(methyl)amino]benzoyl}benzoic acid], the pIC50 is 6.44.
On to `CC(C)CN(c1ccccc1)c1cc(C(=O)O)cc(C(=O)c2ccc(N(C)c3ccc(Cl)cc3)cc2)c1` [10:35, 3-{4-[(4-Chlorophenyl)(methyl)amino]benzoyl}-5-[isobutyl(phenyl)amino]-benzoic acid], for which the pIC50 was 6.75.
Take `CN(c1ccc(Cl)cc1)c1ccc(C(=O)c2cc(C(=O)O)cc(C(=O)Nc3ccccc3)c2)cc1` [Example 2:11]: the pIC50 was 6.16.
Turning to `CN(c1ccc(Cl)cc1)c1ccc(C(=O)c2cc(Oc3ccc(C(C)(C)C)cc3)cc(C(=O)O)c2)cc1` [8:16, 3-(4-tert-Butylphenoxy)-5-{4-[(4-chlorophenyl)(methyl)amino]benzoyl}benzoic acid], the pIC50 was 6.80.
Same read-out and setting: under `CN(c1ccc(Cl)cc1)c1ccc(C(=O)c2cc(Nc3cc(F)ccc3F)cc(C(=O)O)c2)cc1` [10:5, 3-{4-[(4-Chlorophenyl)(methyl)amino]benzoyl}-5-(2,5-difluorophenylamino)-benzoic acid] stands 6.68; under `CN(c1ccc(Cl)cc1)c1ccc(C(=O)c2cc(C(=O)O)cc(N(CC3CC3)c3ccccc3)c2)nc1` [Example 9:7, 3-{5-[(4-Chlorophenyl)(methyl)amino]picolinoyl}-5-[(cyclopropylmethyl)(phenyl)-amino]benzoic acid], 7.49.
In the case of `CN(c1ccc(Cl)cc1)c1ccc(C(=O)c2cc(C(=O)O)cc(N(C(=O)C3CCOCC3)c3ccccc3)c2)cc1` [10:34, 3-{4-[(4-Chlorophenyl)(methyl)amino]benzoyl}-5-[(N-phenyl)-4-tetrahydro-pyrancarboxamido]benzoic acid], the pIC50 was 6.09.
For the compound `CN(c1ccc(Cl)cc1)c1ccc(C(=O)c2cc(Oc3ccc(Cl)cc3)cc(C(=O)O)c2)cc1` [8:21, 3-(4-Chlorophenoxy)-5-{4-[(4-chlorophenyl)(methyl)amino]benzoyl}benzoic acid], the negative logarithm of the IC50 (pIC50) is 7.31.
As for `CCCCOc1ccc(S(=O)(=O)Nc2cc(C(=O)O)cc(C(=O)c3ccc(Nc4ccc(Cl)cc4)cc3)c2)cc1` [Example 7, 3-(4-Butoxybenzensulfonamido)-5-[4-(4-chlorophenylamino)benzoyl]benzoic acid], the pIC50 was 7.05.
With `COc1ccc(COc2cc(C(=O)O)cc(C(=O)c3ccc(N(C)c4ccc(Cl)cc4)cn3)c2)cc1` [Example 11:1, 3-{5-[(4-Chlorophenyl)(methyl)aminol]picolinoyl}-5-(4-methoxybenzyloxy)benzoic acid], the pIC50 is 6.05.
For `CN(c1ccc(Cl)cc1)c1ccc(C(=O)c2cc(Nc3ccc(C(F)(F)F)cc3Cl)cc(C(=O)O)c2)cc1` [10:11, 3-[2-Chloro-4-(trifluoromethyl)phenylamino]-5-{4-[(4-chlorophenyl)(methyl)-amino]benzoyl}benzoic acid], the pIC50 is 6.90.
Regarding `CN(c1ccc(Cl)cc1)c1ccc(C(=O)c2cc(C(=O)O)cc(N(CC3CCCCO3)c3ccccc3)c2)cc1` (stereo not drawn) [10:36, 3-{4-[(4-Chlorophenyl)(methyl)amino]benzoyl}-5-{pheny[(tetrahydropyran-2-yl)methyl]amino}benzoic acid], the pIC50 was 7.60.
`CN(c1ccc(Cl)cc1)c1ccc(C(=O)c2cc(C(=O)O)cc(N(CCCC(F)(F)F)c3ccccc3)c2)cc1` [10:37, 3-{4-[(4-Chlorophenyl)(methyl)amino]benzoyl}-5-[phenyl(4,4,4-trifluorobutyl)-amino]benzoic acid]: the pIC50 is 6.60.
For the compound `CN(c1ccc(Cl)cc1)c1ccc(C(=O)c2cc(C(=O)O)cc(N(C(=O)C3CCC3)c3ccccc3)c2)cc1` [Example 10:31, 3-{4-[(4-Chlorophenyl)(methyl)amino]benzoyl}-5-[(N-phenyl)cyclobutylcarboxamido]benzoic acid], the negative-log IC50 (pIC50) was 6.56.
On the same count and under the same terms, under `CN(c1ccc(Cl)cc1)c1ccc(C(=O)c2cc(C(=O)O)cc(C(=O)Nc3ccccc3)c2)nc1` [Example 2:1, 3-{5-[(4-Chlorophenyl)(methyl)aminol]picolinoyl}-5-(phenylcarbamoyl)benzoic acid] stands 6.35.
Consider `COc1ccc(Nc2cc(C(=O)O)cc(C(=O)c3ccc(N(C)c4ccc(Cl)cc4)cc3)c2)cc1OC` [10:7, 3-{4-[(4-Chlorophenyl)(methyl)amino]benzoyl}-5-(3,4-dimethoxyphenyl-amino)benzoic acid], for which the negative logarithm of the IC50 (pIC50) is 6.32.
Take `CN(c1ccc(Cl)cc1)c1ccc(C(=O)c2ccc(NS(=O)(=O)c3ccc(OC(F)(F)F)cc3)cc2)c(C(=O)O)c1` [Example 5, 5-[(4-Chlorophenyl)(methyl)amino]-2-[4-(4-trifluoromethoxybenzenesulfonamido)-benzoyl]benzoic acid]: the pIC50 is 6.26.
Consider `CN(c1ccc(Cl)cc1)c1ccc(C(=O)c2cc(C(=O)O)cc(-c3ccccc3Cl)c2)nc1` [12:3, 2′-Chloro-5-{5-[(4-chlorophenyl)(methyl)amino]picolinoyl}biphenyl-3-carboxylic acid], for which the pIC50 is 6.63.
For `CN(c1ccc(Cl)cc1)c1ccc(C(=O)c2cc(C(=O)O)cc(C(=O)Nc3cc(F)ccc3F)c2)cc1` [2:15, 3-{4-[(4-Chlorophenyl)(methyl)amino]benzoyl}-5-(2,5-difluorophenyl-carbamoyl)benzoic acid], the pIC50 was 6.17.
As for `CN(c1ccc(Cl)cc1)c1ccc(C(=O)c2cc(C(=O)O)cc(N(C)c3ccccc3F)c2)cc1` [10:24, 3-{4-[(4-Chlorophenyl)(methyl)amino]benzoyl}-5-[(2-fluorophenyl)(methyl)-amino]benzoic acid], the pIC50 was 7.40.
Turning to `CN(c1ccc(Cl)cc1)c1ccc(C(=O)c2cc(C(=O)O)cc(-c3ccc(Cl)cc3)c2)nc1` [12:2, 4′-Chloro-5-{5-[(4-chlorophenyl)(methyl)amino]picolinoyl}biphenyl-3-carboxylic acid], the pIC50 was 6.35.
Turning to `CN(c1ccc(Cl)cc1)c1ccc(C(=O)c2cc(Oc3ccc4c(c3)OCO4)cc(C(=O)O)c2)cc1` [8:12, 5-{4-[(4-Chlorophenyl)(methyl)amino]benzoyl}-3-(3,4-methylenedioxyphenoxy)-benzoic acid], the pIC50 is 6.96.
The same measure, in the same setting: under `CCCCCCC(=O)Nc1cc(C(=O)O)cc(C(=O)c2ccc(N(C)c3ccc(Cl)cc3)cc2)c1` [Example 1:2, 3-{4-[(4-Chlorophenyl)(methyl)amino]benzoyl}-5-heptylamidobenzoic acid] stands 6.86; under `CN(c1ccc(Cl)cc1)c1ccc(C(=O)c2cc(Nc3ccc4c(c3)OC(F)(F)O4)cc(C(=O)O)c2)cc1` [10:18, 3-{4-[(4-Chlorophenyl)(methyl)amino]benzoyl}-5-[3,4-(difluoromethylene-dioxy)phenylamino]benzoic acid], 6.98.
Still for that read-out and setting: under `COc1ccc(N(CC2(C)COC2)c2cc(C(=O)O)cc(C(=O)c3ccc(N(C)c4ccc(Cl)cc4)cn3)c2)cc1` [9:25, 3-{5-[(4-Chlorophenyl)(methyl)amino]picolinoyl}-5-{(4-methoxyphenyl)-[(3-methyloxetan-3-yl)methyl]amino}benzoic acid] stands 7.06; under `CN(c1ccc(Cl)cc1)c1ccc(C(=O)c2cc(C(=O)O)cc(N(C)C3CCOCC3)c2)cc1` [10:22, 3-{4-[(4-Chlorophenyl)(methyl)amino]benzoyl}-5-[methyl(4-tetrahydropyranyl)-amino]benzoic acid], 6.60.
Take `CCC(CC)C(=O)N(c1ccccc1)c1cc(C(=O)O)cc(C(=O)c2ccc(N(C)c3ccc(Cl)cc3)cc2)c1` [10:33, 3-{4-[(4-Chlorophenyl)(methyl)amino]benzoyl}-5-(2-ethyl-N-phenylbutan-amido)benzoic acid]: the pIC50 was 6.12.
As to `COCCN(c1cc(C(=O)O)cc(C(=O)c2ccc(N(C)c3ccc(Cl)cc3)cc2)c1)c1ccccc1F` [10:25, 3-{4-[(4-Chlorophenyl)(methyl)amino]benzoyl}-5-[(2-fluorophenyl)(2-methoxy-ethyl)amino]benzoic acid], the pIC50 was 7.12.
The same measure, in the same setting: under `O=C(O)c1cc(Nc2ccccc2)cc(C(=O)c2ccc(N(CC3CC3)c3ccc(Cl)cc3)cn2)c1` [9:20, 3-{5-[(4-Chlorophenyl)(cyclopropylmethyl)amino]picolinoyl}-5-(phenylamino)-benzoic acid] stands 7.52; under `CN(c1ccc(Cl)cc1)c1ccc(C(=O)c2cc(Oc3cccc(OC(F)(F)F)c3)cc(C(=O)O)c2)cc1` [8:10, 3-{4-[(4-Chlorophenyl)(methyl)amino]benzoyl}-5-[3-(trifluoromethoxy)phenoxy]-benzoic acid], 6.77.

The assay is the same for the next values; noted with them: 5 min; total concentration of title compound in the assay 10 μM.
As to `O=C(O)c1cc(Nc2ccc(Cl)cc2)ccc1C(=O)c1ccc(Nc2ccc(C(=O)C3CC3)cc2)cc1` [6:2, 5-(4-Chlorophenylamino)-2-[4-(4-cyclopropylcarbonylphenylamino)-benzoyl]benzoic acid], the inhibition at 10 µM turned out to be 100%.
As to `CCCCOc1ccc(S(=O)(=O)Nc2cc(C(=O)O)cc(C(=O)c3ccc(Nc4ccc(Cl)cc4)cc3)c2)cc1` [Example 7, 3-(4-Butoxybenzensulfonamido)-5-[4-(4-chlorophenylamino)benzoyl]benzoic acid], the inhibition at 10 µM was 98%.
In the case of `CN(c1ccc(Cl)cc1)c1ccc(C(=O)c2ccc(NS(=O)(=O)c3ccc(OC(F)(F)F)cc3)cc2)c(C(=O)O)c1` [Example 5, 5-[(4-Chlorophenyl)(methyl)amino]-2-[4-(4-trifluoromethoxybenzenesulfonamido)-benzoyl]benzoic acid], the inhibition at 10 µM is 100%.
Regarding `CCCCCCC(=O)Nc1cc(C(=O)O)cc(C(=O)c2ccc(N(C)c3ccc(Cl)cc3)cc2)c1` [Example 1:2, 3-{4-[(4-Chlorophenyl)(methyl)amino]benzoyl}-5-heptylamidobenzoic acid], the inhibition at 10 µM turned out to be 94%.
